Measured values: ChEMBL document CHEMBL1201862, “PubChem BioAssay data set” (2004)
Calls of active or inactive are those of the source.

Tests used:
[1] = biological target: Prothrombin (Bos taurus, UniProt P00735); assay: thrombin inhibition, dose response, biochemical, fluorescence polarization, uHTS hits (AID 602369); type: functional
[2] = biological target: 26S proteasome non-ATPase regulatory subunit 14 (Homo sapiens, UniProt O00487); assay: inhibition of proteasome subunit RPN11 – biochemical, fluorescence polarization, uHTS hits, confirmation (AID 602368); type: functional
Chain of 26S proteasome non-ATPase regulatory subunit 14 (O00487 whole entry): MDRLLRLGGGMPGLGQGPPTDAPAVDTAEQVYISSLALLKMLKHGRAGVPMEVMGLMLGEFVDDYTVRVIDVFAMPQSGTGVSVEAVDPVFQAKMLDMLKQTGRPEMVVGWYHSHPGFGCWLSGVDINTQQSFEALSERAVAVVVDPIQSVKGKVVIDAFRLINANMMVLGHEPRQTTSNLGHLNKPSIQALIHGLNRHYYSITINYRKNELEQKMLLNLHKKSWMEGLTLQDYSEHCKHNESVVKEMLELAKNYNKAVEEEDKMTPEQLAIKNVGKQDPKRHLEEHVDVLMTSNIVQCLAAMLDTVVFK

[3] = biological target: 72 kDa type IV collagenase (Homo sapiens, UniProt P08253); assay: Dose Response validation of uHTS RPN11 inhibitor hits using a MMP-2 Fluorescence assay.; type: functional
Chain of 72 kDa type IV collagenase (P08253 whole entry): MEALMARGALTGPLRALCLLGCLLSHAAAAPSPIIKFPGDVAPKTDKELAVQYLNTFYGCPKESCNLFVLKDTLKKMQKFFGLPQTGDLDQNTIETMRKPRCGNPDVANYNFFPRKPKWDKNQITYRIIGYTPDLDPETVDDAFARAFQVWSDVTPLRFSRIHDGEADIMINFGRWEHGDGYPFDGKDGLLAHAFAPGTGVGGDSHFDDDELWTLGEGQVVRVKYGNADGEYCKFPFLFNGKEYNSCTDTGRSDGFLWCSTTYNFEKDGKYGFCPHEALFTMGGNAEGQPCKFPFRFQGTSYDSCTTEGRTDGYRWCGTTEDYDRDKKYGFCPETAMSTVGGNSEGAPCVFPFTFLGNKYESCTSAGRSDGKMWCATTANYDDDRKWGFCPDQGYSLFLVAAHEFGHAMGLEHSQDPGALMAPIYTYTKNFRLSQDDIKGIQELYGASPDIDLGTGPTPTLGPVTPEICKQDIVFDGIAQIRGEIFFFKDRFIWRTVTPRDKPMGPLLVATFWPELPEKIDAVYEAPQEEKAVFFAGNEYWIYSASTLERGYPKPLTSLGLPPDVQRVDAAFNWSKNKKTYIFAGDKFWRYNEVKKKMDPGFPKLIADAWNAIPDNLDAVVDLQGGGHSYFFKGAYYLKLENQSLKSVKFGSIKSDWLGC

[4] = test system: P388/ADR; assay: cells; type: functional; details: Mus musculus
[5] = test system: P388; assay: cells; type: functional; details: Mus musculus
[6] = test system: SN12K1; assay: cells; type: functional; details: Homo sapiens
[7] = biological target: Beta Lactamase (Pseudomonas aeruginosa, UniProt Q932Y6); assay: beta-lactamase reporter inhibitor potency, dose response, artefact control for TLR9-MyD88 binding inhibitor project, BLA reporter cells, FRET fluorescence (AID 588341); type: cell-based;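 further: cell based assay in CHO-K1 cells stably expressing beta-lactamase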
Chain of Beta Lactamase (Q932Y6 whole entry, the tested form may be a part): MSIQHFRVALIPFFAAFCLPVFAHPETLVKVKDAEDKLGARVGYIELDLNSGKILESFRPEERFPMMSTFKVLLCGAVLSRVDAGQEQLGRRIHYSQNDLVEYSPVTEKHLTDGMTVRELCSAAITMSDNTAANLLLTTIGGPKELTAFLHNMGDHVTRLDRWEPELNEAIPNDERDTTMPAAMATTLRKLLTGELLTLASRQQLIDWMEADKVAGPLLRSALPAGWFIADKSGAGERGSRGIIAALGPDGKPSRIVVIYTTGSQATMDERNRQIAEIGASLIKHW

[8] = test system: CHO; assay: cytotoxicity in TLR9-MyD88 CHO cells, dose response, cytotoxicity control for TLR9-MyD88 binding inhibitor project, cell-based, luminescence (AID 588339); type: functional, hamster; details: Cricetulus griseus;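 further: CHO cells stably coexpressing TLR9 and MyD88 fusions from primary screen; compound exposure lasted 48 hours before viability readout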
[9] = biological target: T1, Endoribonuclease toxin MazF (Escherichia coli K-12, UniProt P0AE70); assay: MazF toxin RNase activators, dose response, biochemical, fluorescence, single-stranded RNA substrate, uHTS hits (AID 588481); type: functional
T1 sequence (P0AE70 whole entry): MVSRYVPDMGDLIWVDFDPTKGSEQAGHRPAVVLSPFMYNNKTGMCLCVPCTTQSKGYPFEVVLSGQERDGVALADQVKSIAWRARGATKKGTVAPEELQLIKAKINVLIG

[10] = biological target: T1, Endoribonuclease toxin MazF; assay: fluorescent RNA oligo signal without MazF, dose response, counter-screen for MazEF activator project, biochemical, fluorescence, single-stranded RNase substrate (AID 588502); type: functional

COc1ccccc1Cc1c(-c2cccc(Cl)c2)nc2ccc(Br)cn12
IC50 [1]: 8.29 µM (active) | IC50 [2]: 14.2 µM (active) | IC50 [3]: > 100 µM (inactive)

O=C(NC(Cc1ccc(I)cc1)C(=O)O)c1ccc(Br)cc1 (stereo not drawn)
GI50 [4]: 21.3 µM (inactive) | GI50 [5]: 53.7 µM (inactive) | GI50 [6]: > 100 µM (inactive)

C/C(=N\Nc1ccc([N+](=O)[O-])cc1)c1cc2ccccc2o1
IC50 [1]: 1.62 µM (active) | IC50 [7]: 3 µM (active) | IC50 [8]: 49.7 µM (inactive) | IC50 [2]: 1.82 µM (active) | IC50 [3]: > 100 µM (inactive)

CC(C)=CCC(OC(=O)C=C(C)C)c1cc(O)c2c(c1O)C(=O)C=CC2=O (stereo not drawn)
GI50 [4]: 0.023 µM (active) | GI50 [5]: 0.0296 µM (active) | GI50 [6]: 1.2 µM (inactive)

COc1cc(/N=N\c2ccc(OC)c(S(=O)(=O)O)c2)c(C)cc1/N=N\c1ccc(/C=C/c2ccc(/N=[N+](/[O-])c3ccc(/C=C/c4ccc(/N=N/c5cc(C)c(/N=N\c6ccc(OC)c(S(=O)(=O)O)c6)cc5OC)cc4S(=O)(=O)O)c(S(=O)(=O)O)c3)cc2S(=O)(=O)O)c(S(=O)(=O)O)c1
GI50 [5]: > 100 µM (inactive) | GI50 [6]: > 100 µM (inactive)

COc1cc(C2c3cc4c(cc3[C@@H](Nc3ccc([N+](=O)[O-])cc3)C3COC(=O)[C@H]23)OCO4)cc(OC)c1O (stereo partly drawn)
GI50 [4]: 0.324 µM (active) | GI50 [5]: < 0.01 µM (active) | GI50 [6]: 0.0427 µM (active)

CCOc1ccccc1C(=O)Nc1cc(Cl)ccc1O
EC50 [9]: 38 µM (inactive) | EC50 [10]: > 99 µM (inactive)

Cc1[nH]c2ccccc2c1/C=C(\C#N)C(=O)NCc1ccccc1
EC50 [9]: > 99 µM (inactive) | EC50 [10]: > 99 µM (inactive)
